What was measured:
cardiac myocytes = test: Cardiac myocyte cell death under hypoxia / normoxia; format: cell-based
Excerpt: Accordingly, it can be seen that inhibitor compounds which bind to the novel BAX site can protect cardiac myocytes from cell death induced by hypoxia.

[1] = system: mitochondrial apoptosis-induced channel; settings: Peixoto et al. Biochem J. 2009; cited from earlier work
BAX [2] = biological target: T1, BAX (Homo sapiens, UniProt Q07812); test: Liposome release assay (ANTS/DPX release by tBID-activated BAX); format: biochemical
Description: FIG. 3. Left: Kinetic trace of percent release of ANTS and DPX from liposomes in response to tBID activated BAX in the absence (blue) and presence of iMAC1 (green) and iMAC2 (Red). Right: Percent release after 20 minutes at different doses of iMAC1 (green), iMAC2 (red) and iMAC3 (blue). Each molecule was tested at 6, 3 and 1.5 μM, high to low doses are indicated by dark to light tones.
FIG. 18A-18B. […] B) Docked structure of […] within the novel BAX site.
iMAC1 and iMAC2 Inhibit BAX Activation in Liposome Release Assays: Liposomes containing the fluorophore, ANTS, and the quencher, DPX, were incubated with 200 nM BAX activated with 30 nM tBID resulting in BAX-mediated pore formation in the liposomal membrane and release of ANTS and DPX.

BAX [3] = biological target: T1, BAX; test: NMR chemical shift perturbation of 15N-BAX upon titration; format: binding
Excerpt: FIG. 4A-B. Measured chemical shift changes of 15N-BAX upon iMAC1 and iMAC2 titration up to a ratio of 1:4 BAX:iMAC are plotted as a function of BAX residue number. Residues with significant backbone amide chemical shift change are highlighted in orange. Highest significant chemical shift changes (twice the calculated significance threshold) are highlighted in red. […] Chemical shift changes in other regions of the structure are not localized and predominantly occur in hydrophobic residues at the hydrophobic core of the BAX structure. Regions that previously identified to be involved in regulating BAX activation are shown in violet shading (helix α1 and α6), teal shading (helix α2) and yellow shading (helix α9).
FIG. 13: Measured chemical shift changes of ^15N-BAX upon octyl glucoside detergent titration, below the detergent's CMC point, are plotted as a function of BAX residue number. Residues with significant backbone amide chemical shift change are highlighted in orange. Highest significant chemical shift changes (twice the calculated significance threshold) are highlighted in red.
Significant CSP mapped onto the surface and ribbon depictions of BAX (FIG. 5), the BAX trigger site (blue), the canonical BH3-binding site and a9 (green) are included for comparison. Affected residues are represented by the orange and red spheres in the ribbon diagram and by the orange and red bars in the plot (the calculated significance threshold is marked in orange and is equal to the average shift plus the standard deviation while values at double the threshold are marked in red).

oligomeric BAX = oligomeric BAX (Homo sapiens, UniProt Q07812); test: Ligand-observed NMR (chemical shift, STD, WATER LOGSY); format: binding; settings: aromatic peaks of ligand observed
Excerpt: FIG. 22. iMACs bind to both monomer and oligomeric BAX.
iMACs Bind to Both Monomeric and Oligomeric BAX in vitro.

T1 sequence (Q07812 whole entry): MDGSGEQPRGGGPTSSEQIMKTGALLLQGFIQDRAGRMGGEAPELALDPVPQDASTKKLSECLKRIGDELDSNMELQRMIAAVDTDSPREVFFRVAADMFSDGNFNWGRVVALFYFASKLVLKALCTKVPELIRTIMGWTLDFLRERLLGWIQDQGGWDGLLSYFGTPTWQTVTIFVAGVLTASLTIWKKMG
Sequence of oligomeric BAX (Q07812 whole entry): as above

For OC(CN1CCNCC1)Cn1c2ccc(Br)cc2c2cc(Br)ccc21 (stereo not shown) [iMAC1], the “protection from cell death” value (cardiac myocytes; hypoxia, compared to vehicle (0.2% DMSO)) is listed as “protects cardiac myocytes from cell death induced by hypoxia”, the “effect on cardiac myocytes” value (cardiac myocytes; normoxia) is listed as “no effect” and the “inhibition of cytochrome c release and mitochondrial apoptosis-induced channel activity” value [1] is listed as “more potent inhibitors”.
In the case of Cl.Cl.FC(CN1CCNCC1)Cn1c2ccc(Br)cc2c2cc(Br)ccc21 (stereo not shown) [iMAC2], the “inhibition of tBID-induced BAX activation and BAX pore formation (release of ANTS and DPX from liposomes)” value (BAX [2]; 200 nM BAX, 30 nM tBID, tested at 6, 3 and 1.5 μM, release after 20 minutes) is reported as “inhibit tBID-induced BAX activation and BAX pore formation”, the “region of chemical shift changes of 15N-BAX” value (BAX [3]; iMAC titration up to a ratio of 1:4 BAX:iMAC) is reported as “concentrated in the region formed by helices α3, α4, α5 and loop α3-α4” and the “binding to oligomeric BAX” value (oligomeric BAX) is reported as “binding to both oligomeric BAX”. The “inhibition of cytochrome c release and mitochondrial apoptosis-induced channel activity” value [1] was “more potent inhibitors”.
With CCCCCCCCO[C@@H]1O[C@H](CO)[C@@H](O)[C@H](O)[C@H]1O [n-octyl-3-D-glucoside] the “inhibition of BAX activation and BAX-mediated pore formation in liposomal membranes” value (BAX [2]; concentrations well below the critical micelle concentration (CMC)) was “inhibits BAX activation and BAX-mediated pore formation”, the “region of chemical shift changes of 15N-BAX” value (BAX [3]; detergent titration below the detergent's CMC point) was “concentrated in the region formed by helices α3, α4, α5, α6 and loop α3-α4” and the “binding to the novel BAX site by NMR analysis” value (BAX [3]; octyl glucoside titration, FIG. 13) was “binding to the novel site that regulates BAX inhibition”.

Reference: US20150335671A1, “SMALL-MOLECULE BINDING SITE ON PRO-APOPTOTIC BAX REGULATES INHIBITION OF BAX ACTIVITY” (ALBERT EINSTEIN COLLEGE OF MEDICINE OF YESHIVA UNIVERSITY, priority 2013, published 2015)
